Data published in paper PMC9975698, “Hyperoside alleviates toxicity of β-amyloid via endoplasmic reticulum-mitochondrial calcium signal transduction cascade in APP/PS1 double transgenic Alzheimer's disease mice” (Redox Biology, 2023).

Experiments:
[1] = system: HT22 cells; experiment: Real time mitochondrial membrane potential (rhodamine 123); format: cell-based; conditions: rhodamine 123-stained HT22 cells, Aβ 30 μM with HYP 20, 40, 80 μM
Excerpt: Disruption of RyR2 regulation in the ER mediates the most important signal transduction cascade responses associated with AD [24]. RyR2 channels are implicated in many cellular functions, particularly mitochondrial metabolism. As confirmed in previous section (Fig. 9G), the expression of mRNA for MCU was decreased in RyR2 knockdown cells. […] Therefore, the role of HYP in regulating Aβ-induced ER-mitochondrial Ca^2+ homeostasis and apoptosis were further validated. […] It was reported that mitochondrial calcium level affects cellular energy by activating oxidative metabolism, mitochondrial respiration and ATP synthesis. […] To further verify the result, the membrane potential was stained with a more sensitive dye, JC-1 (Fig. 10C). JC-1 is a dual-emission mitochondrial membrane potential sensing dye, which is accumulated and aggregated in polarized (normal) mitochondria with excitation and emission in the red spectrum at ∼590 nm. […] It is noteworthy that increased mitochondrial calcium influx can trigger apoptosis. To further explore the protective role of HYP in Aβ -induced neuronal cell death, HT22 cells were co-treated with Aβ aggregates and HYP for 24 h. The expression level of selected apoptotic markers including Bcl-2, Bax and cyto-c were detected by Western blot (Fig. 10E).

[2] = system: APP/PS1 mice; experiment: Rotarod test; format: in vivo; conditions: HYP nasal, every 3 days, 8 weeks
Experimental: All animal care and experimental procedures were performed in accordance with the “Institutional Animal Care and User Committee Guidelines” of the Macau University of Science and Technology. APP/PSEN1 (APP/PS1) mice (N000175) were purchased from the Nanjing Institute of Biomedical Sciences, Nanjing University, China, weighing 25 ± 5 g. The animals were housed in a temperature-controlled room with a 12 h light/dark cycle and given ad libitum food and water. Male mice were randomly divided into the following 6 experimental groups. (a) wild-type group (n = 6), (b) APP/PS1 group (n = 6), (c) HYP (20 mg/kg group) (n = 7), (d) HYP (40 mg/kg) group (n = 8), (e) HYP (80 mg/kg) group (n = 8) and (f) memantine (MEM) (10 mg/kg) positive control group (n = 8). HYP was dissolved in the solvent containing 10% DMSO, 40% PEG300 and 5% Tween-80 in PBS, and administrated via nasal injection for every 3 days with a volume of 0.5 μL/g of body weight for 8 consecutive weeks. The rotarod test was used to monitor motor coordination. The test consisted of placing the animal on a rotating rod with a rotational speed of 25 rpm (Yuyan, Shanghai, China) until the animal fell to the ground and the movement time was recorded. The test was performed three times with an interval of 300 s, and the mean of the test results were calculated.

[3] = molecular target: T1, Aβ aggregates (Homo sapiens, UniProt P05067); experiment: Biolayer interferometry (BLI) analysis; format: binding
T1 construct: purchased DGpeptites, Hangzhou, CHINA
T1 sequence (P05067 672-713 limits assumed): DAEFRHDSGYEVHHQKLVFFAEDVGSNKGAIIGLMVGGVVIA
Experimental: 200 μL of solution containing 200 μg of the Aβ peptide was incubated at 37 °C for 5 days. EZ-Link NHS-LC-LC-Biotin (Thermo Scientific, USA) was dissolved in DMSO to a concentration of 10 mM. Aβ aggregates was biotinylated in a 1:0.5 M ratio of biotin reagent and incubated for 30 min at room temperature before being added to a 96-well plate (Greiner Bio-One, PN:655,209). Biotinylation was ascertained by loading the mixture onto super streptavidin (SSA) capacity tips (ForteìBIO, CA, USA) and detected by the FortéBIO Octet Red instrument. Additionally, SSA biosensors were pre-wetted with PBS for the recording of baselines. Successful biotinylated Aβ aggregates solution was collected and immobilized onto SSA tips overnight at 4 °C. HYP dissolved in DMSO was diluted to an appropriate concentration with PBS to a final 200 μL/well volume. Control wells were added with an equal amount of DMSO. All experiments consisted of repeated cycles of four significant steps: wash (300 s), baseline (120 s), association (120 s), and dissociation (120 s). The association, dissociation plot, and kinetic constants were analyzed with ForteìBIO data analysis software.

[4] = system: APP and APP-β; experiment: Western blot of APP and APP-β in HT22 cells; format: cell-based
Experimental: After HYP treatment, the cells were lysed with RIPA. Protein concentrations were determined by Bio-Rad protein assay (Bio-Rad Laboratories, CA, USA). After electrophoretic separation, the gels were blotted and stained with primary antibodies. Binding of antibodies was visualized with peroxidase-coupled secondary antibodies using ECL Western Blotting detection reagents (Invitrogen, Scotland, UK). Band intensities were quantified using ImageJ software. Data were obtained from three independent experiments.

[5] = system: APP/PS1 mice; experiment: HE staining of hippocampus; format: in vivo; conditions: hippocampus CA1, CA3, DG, nasal HYP
Experimental: All animal care and experimental procedures were performed in accordance with the “Institutional Animal Care and User Committee Guidelines” of the Macau University of Science and Technology. APP/PSEN1 (APP/PS1) mice (N000175) were purchased from the Nanjing Institute of Biomedical Sciences, Nanjing University, China, weighing 25 ± 5 g. The animals were housed in a temperature-controlled room with a 12 h light/dark cycle and given ad libitum food and water. Male mice were randomly divided into the following 6 experimental groups. (a) wild-type group (n = 6), (b) APP/PS1 group (n = 6), (c) HYP (20 mg/kg group) (n = 7), (d) HYP (40 mg/kg) group (n = 8), (e) HYP (80 mg/kg) group (n = 8) and (f) memantine (MEM) (10 mg/kg) positive control group (n = 8). HYP was dissolved in the solvent containing 10% DMSO, 40% PEG300 and 5% Tween-80 in PBS, and administrated via nasal injection for every 3 days with a volume of 0.5 μL/g of body weight for 8 consecutive weeks. Pathological assessment on the cornuammonis region 1 (CA1), cornuammonis region 3 (CA3) and dentate gyrus region (DG) regions of the mouse hippocampus was done by HE staining. Brain sections were dehydrated with 70%, 80% and 90% alcohol respectively. […]

O=c1c(O[C@@H]2O[C@H](CO)[C@H](O)[C@H](O)[C@H]2O)c(-c2ccc(O)c(O)c2)oc2cc(O)cc(O)c12 [HYP, Quercetin-3-O-β-D-galactopyranoside]
mitochondrial membrane potential, real time [1]: attenuated the decrease of membrane potential triggered by Aβ
motor ability (time retained on the rotating rod) [2]: improved after HYP treatment
Kids ([3]; Fig. 1G, dissociation rate constant): 0.0343 s⁻¹
Kd ([3]; HYP 6.25–200 μM, biotinylated Aβ aggregate): 14.5 µM
protein level of APP and APP-β [4]: reduced the protein level of both APP and APP-β
neuronal cell morphology (HE staining) [5]: neuronal cell morphological changes were minimal
